Experimental findings from patent US8163870B2, “Channel forming peptides” (Kansas State University Research Foundation, priority 2000, dated 2012) are described below.

In data set [1] the test system is tight junction-associated proteins (actin, ZO-1, occludin) in MDCK monolayers. Put plainly: Confocal microscopy, immunolocalization of tight-junction associated proteins. Type of data set: cell-based, canine. As to conditions: peptides 100 μM; EDTA 6 mM and hypotonic Ringer. As to the method: Confocal microscopy. Immunoreactivity to antibodies raised against tight-junction associated proteins was assessed by confocal microscopy (Zeiss, Thornwood, N.Y.). Samples for visualization were prepared from monolayers used in electrophysiological studies. After removal from Ussing chambers, monolayers were washed in Ringer solution and fixed overnight in 10% neutral buffered formalin. Monolayers were washed 3 times in PBS, permeabilized with 0.1% Triton X-100 in PBS, blocked with goat serum, and then exposed to primary antibody in a 1:500 dilution (rat anti-ZO-1, cat# MAB120, Chemicon, Temecula, Calif. or rabbit anti-occludin, cat.# 71-1500; Zymed, San Francisco, Calif.) for 1 hour at room temperature. After being washed 3 times in PBS, FITC-conjugated goat anti-rat (cat #AP136F, Chemicon) or goat anti-rabbit (cat #FI-1000; Vector Laboratories, Burlingame, Calif.) secondary antibodies were employed (1:1000 dilution) with exposure occurring for 1 hour at room temperature. TRITC-labeled phalloidin (0.1 mg/ml in methanol; Sigma Chemical Co.) was used for F-actin localization was applied concurrently with the secondary antibody. A KrAr laser was used to excite the fluorophores. Filter sets used for fluorescein were BP485/20 nm for excitation and BP515-540 nm for emission and for rhodamine BP530-585 nm for excitation and LP590 nm for emission.

For a further data set, the system named is MDCK monolayers. The experiment in a line: FITC-dextran permeability assay. The data set is classed as cell-based, canine. As to conditions: SEQ ID NO. 27 100 μM; EDTA 3 mM in hypotonic Ringer. Here is the method:
Confluent MDCK cell monolayers were washed once with Ringer solution and placed in one of three treatments containing FITC-conjugated dextran (Sigma Chemical Co.) in the apical compartment; 1, Ringer solution in the apical and basolateral compartments; 2, Ringer solution apical and basolateral with SEQ ID No. 27 (also referred to herein as NC-1059) (100 μM) in the apical solution; 3, EDTA (3 mM) in Ringer solution that had been diluted 1:1 with distilled water in both the apical and basolateral compartments. Monolayers are incubated at 37° C. for 60 minutes and the solution in the basolateral well sampled to quantify fluorescently labeled dextran. Monolayers are then washed with Ringer solution to remove peptide, EDTA, and dextran, placed in tissue culture medium and returned to the incubator for two days before the assay was conducted again.
FITC-dextran permeability assay. Epithelial permeability to uncharged solutes of various sizes was assessed with monolayers grown on Snapwell tissue culture inserts as described above. […] Monolayers were incubated at 37° C. for 60 minutes and the solution in the basolateral well was sampled to quantify fluorescently labeled dextran. […]

In another data set the test system is cultured CF monolayers. Put plainly: Glutathione transport in cultured CF monolayers. The data set is classed as cell-based.
A further data set concerns MDCK cells. Type of data set: cell-based, canine. The settings on record: peptide at 500 μM.
Source text: Cell culture: MDCK cells were a generous gift of Dr. Lawrence Sullivan (Kansas University Medical Center, Kansas City, Kans.). T84 cells were obtained from Dr. Daniel Devor (University of Pittsburgh, Pittsburgh, Pa.). MDCK and T84 cells were maintained with similar culture procedures. The culture medium was a 1:1 mixture of DMEM and Ham's F-12 (Gibco BRL, Grand Island, N.Y.) supplemented with 5% heat inactivated fetal bovine serum (BioWhittaker, Walkersville, Md.), and 1% penicillin and streptomycin (Gibco BRL). Cells were grown in plastic culture flasks in a humidified environment with 5% CO2 at 37° C. and passaged every 5-7 days. For Ussing chamber experiments, cells were plated on 1.13 cm^2 permeable supports (Snapwell™, Costar®, Cambridge, Mass.) at a density of approximately 1×10^6 cells/well and incubated in DMEM/F-12 supplemented with FBS and antibiotics (changed every other day) for 2-3 weeks prior to being mounted in modified Ussing flux chambers.
To form monolayers, the cells were plated onto the upper surface of a permeable membrane that forms the bottom of a plastic well. Two types were used. One was the Transwell™ insert (Costar®, Cambridge, Mass.) supported in a six-well tissue culture plate and the other type was the Snapwell™ (Costar®, Cambridge, Mass.). During incubation, the medium was replaced at 48-72 hour intervals. Confluent monolayers formed within 72 hours. Experiments were performed on the monolayers 6-9 days after the initial plating. Net fluid secretion responses were optimal after six days.
Solutions: Ringer solution was made fresh daily. The final concentration (in mM) was 120 NaCl, 25 NaHCO3 3.3 KH2HPO4, 0.8 K2HPO4, 1.2 MgCl2, 1.2 CaCl2, (290±2 mOsmol). All components of the Ringer solution were from Sigma (St. Louis, Mo.).
(§1) Epithelial electrical measurements: Transepithelial ion transport was evaluated in a modified Ussing chamber (Model DCV9, Navicyte, San Diego, Calif.). The Ussing chamber's fluid resistance compensation was completed in Ringer solution (see below). For electrical measurements cell monolayers were bathed in Ringer solution maintained at 37° C. and continuously bubbled with 5% CO2:95% O2. The transepithelial membrane potential (Vte) was clamped to zero and the transepithelial short circuit current (Isc), an indicator of net ion transport, was measured continuously with a voltage clamp apparatus (Model 558C, University of Iowa, Department of Bioengineering, Iowa City, Iowa). Data were digitally acquired at 1 Hz with a Macintosh computer (Apple Computer, Cuppertino, Calif.) using Aqknowledge software (ver. 3.2.6, BIOPAC Systems, Santa Barbara, Calif.) with an MP100A-CE interface.
as §1, with “Transepithelial” for “Epithelial electrical measurements: Transepithelial”, “(composition (in mM) was 120 NaCl, 25 NaHCO3 3.3 KH2HPO4, 0.8 K2HPO4, 1.2 MgCl2, 1.2 CaCl2).” for “(see below).”
MDCK cell monolayers (in the presence of 1-EBIO to maximize basolateral membrane K^+ conductance) were exposed on the apical aspect to escelating peptide concentrations. Maximal change in Isc (relative to the Isc prior to peptide exposure) was recorded following each increment in apical peptide concentration. […]

A short description of data set [2]: Chemical cross-linking (BS3) and SDS-PAGE, oligomeric state of peptide in solution. The data set is classed as physicochemical. As to conditions: SDS-PAGE. As to the method: Chemical cross-linking: In order to visualize the oligomeric state of the peptide in solution a chemical cross-linking protocol was developed. Calculated amounts of each peptide were weighted out and dissolved in 1 mL of distilled water to make 1 mM stock solutions. A 100 mM stock solution of the chemical crosslinking reagent Bis[Sulfosuccinimidyl]suberate, BS^3, (Pierce Chemical Co., Rockford, Ill.) was prepared in dimethyl sulfoxide (DMSO). […] Sample were allowed to sit at room temperature for 15 minutes. 1-6 μL of 100 mM BS^3 was then added to the previously prepared peptide such that the crosslinking reagent was present in 20-fold excess. The final volume for each reaction was 100 μL. […] Each sample was then vacuum dried. Later dry samples were re-dissolved in 60 μL of distilled water along with 60 μL of a 2×-tricine SDS sample buffer (Novex, San Diego). All samples were then boiled at 100° C. for 5 minutes. 5 μL aliquots of each SDS boiled sample was then loaded into separate lanes of pre-cast, 1.0 mm, 10 well, 10-20% tricine gels (Novex, San Diego). Pre-made Novex tricine-SDS buffer was used in the electrophoresis. The reference well contained 1 μL of MultiMark® multi-colored molecular weight standard (Novex, San Diego). The electrophoresis was carried out at a constant 110 Volts for 90 minutes. […]

Turning to `O=C(O)CN(CCN(CC(=O)O)CC(=O)O)CC(=O)O` [EDTA], in data set [1], the “distribution of actin, occludin and ZO-1 immunoreactivity” value is “profound changes in localization of the peri-junctional actin ring, as well as the distribution of ZO-1”. Besides, the “permeation of 20 kDa FITC-dextran conjugate” value with MDCK monolayers is recorded as “highest level of permeation”.

Take “PARVGLGITT VLTMTTQSSG SRAKKKK (PARVGLGITTVLTMTTQSSGSRAKKKK; Modified Homo sapiens) [SEQ ID No. 2, reference compound]”: the glutathione transport entry in the data set on cultured CF monolayers is listed as “active but to a much lesser extent”. Moreover, in the data set with MDCK cells, the “Activity profile in MDCK cells” value is given as 12.5 at 500 μM μA/cm2. Also, the “aggregation state in solution” value in data set [2] is listed as “only trace amounts of aggregates higher than trimer”.
